≈ marks a conversion by molar mass, not a printed value.
Key:
A549 = experiment: Compound was tested for cytotoxic activity against human lung carcinoma (A-549); format: functional; conditions: for EC50: Homo sapiens, A549, read-out: ED50 (the source's name)
HT-29 = experiment: Compound was tested for cytotoxic activity against human colon adenocarcinoma (HT-29); format: functional; conditions: for EC50: Homo sapiens, HT-29, read-out: ED50 (the source's name)
MCF7 = experiment: Compound was tested for cytotoxic activity against human breast carcinoma (MCF-7); format: functional; conditions: for EC50: Homo sapiens, MCF7, read-out: ED50 (the source's name)
Artemia = experiment: (§1) Compound was tested for lethal concentration in Brine shrimp lethality test (BST); format: organism-based; conditions: in vivo
[1] = as §1; format: organism-based; conditions: artemia, in vivo

CCCCCCCCCCC(O)C(O)CCC(O)C1CCC(C2CCC(CCCCCCCC3CC(CC(C)=O)C(=O)O3)O2)O1 (trans isomer)
ED50 (A549): 0.0337 ng/mL (≈ 0.0527 nM)
ED50 (HT-29): 229 ng/mL (≈ 358 nM)
ED50 (MCF7): 1.07 ng/mL (≈ 1.67 nM)
LC50 (Artemia): 137 ng/mL (≈ 214 nM)

COc1cccc2c1C(=O)c1c(O)c3c(c(O)c1C2=O)C[C@@](O)(C(=O)CO)C[C@@H]3O[C@H]1C[C@H](N)[C@H](O)[C@H](C)O1 [DOXORUBICIN]
EC50 (A549): 0.153 ng/mL (≈ 0.281 nM)
EC50 (HT-29): 0.558 ng/mL (≈ 1.03 nM)
EC50 (MCF7): 13.8 ng/mL (≈ 25.4 nM)
LC50 (Artemia): 80 ng/mL (≈ 147 nM)

CCCCCCCCCCC(O)C(O)CCC(O)C1CCC(C2CCC(CCCCCCCC3CC(CC(C)=O)C(=O)O3)O2)O1 (stereo in doubt)
EC50 (A549): 0.0337 ng/mL (≈ 0.0527 nM)
EC50 (HT-29): 229 ng/mL (≈ 358 nM)
EC50 (MCF7): 1.07 ng/mL (≈ 1.67 nM)
LC50 [1]: 137 ng/mL (≈ 214 nM)
